From patent US4877727A, “Substrate for determining leucine aminopeptidase or gamma-glutamyltranspeptase activity” (Kyowa Medex Co., Ltd., priority 1984, dated 1989)
In brackets after ≈: the same amount, converted by molar mass.

What was measured:
[1] = system: leucine aminopeptidase (LAP); assay: LAP determination in serum, absorption change per minute (Example 1); format: biochemical
Description: 3 ml of the reagent solution was incubated at 37° C. for ten minutes. To the solution was added 0.05 ml of a serum sample and the mixture was immediately stirred and the change in absorption of the solution at 745 nm was measured for one minute.
LAP activity in the sample can be calculated using the following equation: [formula] ΔE means the amount of absorption change per minute.
The same procedures as described above were repeated except that the following materials were used. […]

[2] = Maximum wavelength of formed pigment; format: physicochemical
Description: 50 μl of 1 mM each free compound was added to 3 ml of 0.1M phosphate buffer containing 0.5 mg/ml EMSE and 1 U/ml laccase and the mixture was incubated at 37° C. for 5 minutes. The absorption of the reaction solution at λmax was measured. As a control, 5-aminosalicylic acid was used and the reaction of the compound with 2,6-xylenol was carried out in the presence of metaperiodate under strong alkaline conditions.

[3] = Stability of pigment; format: physicochemical
[4] = Solubility of substrate; format: physicochemical; details: read-out: S: Solubility
[5] = Serum(1), 37° C., 745 nm Compound No. 2, 635 nm (a), 565 nm (b), 675 nm (c)

| amount of absorption change per minute ([1]; Serum (2), same wavelengths) | amount of absorption change per minute ([1]; Serum (3), same wavelengths) | amount of absorption change per minute ([1]; Serum (4), same wavelengths) | amount of absorption change per minute ([1]; Serum (5), same wavelengths) | amount of absorption change per minute ([1]; Serum (6), same wavelengths) | amount of absorption change per minute ([1]; Serum (7), same wavelengths) | amount of absorption change per minute ([1]; Serum (8), same wavelengths) | amount of absorption change per minute ([1]; Serum (9), same wavelengths) | amount of absorption change per minute ([1]; Serum (10), same wavelengths) | amount of absorption change per minute [1, 5] | λmax: Maximum wavelength [2] | ST: Stability of pigment [3] | solubility [4] | SMILES |
| --- | --- | --- | --- | --- | --- | --- | --- | --- | --- | --- | --- | --- | --- |
| 0.0054 | 0.0090 | 0.0089 | 0.0071 | 0.0071 | 0.0074 | 0.0086 | 0.0082 | 0.0079 | 0.0071 |  |  |  | CC(C)C[C@H](N)C(=O)Nc1ccc([N+](=O)[O-])cc1 [(b), L-leucil-p-nitroanilide] |
|  |  |  |  |  |  |  |  |  |  | 615 nm | 90% | < 20 mg/mL | CC(C)C[C@H](N)C(=O)Nc1ccc(O)c(C(=O)O)c1 [Control, reference compound] |
|  |  |  |  |  |  |  |  |  |  | 715 nm | > 98% | > 200 mg/mL | Cc1cc(NC(=O)[C@@H](N)CC(C)C)ccc1N(CCS(=O)(=O)O)CCS(=O)(=O)O [compound 12] |
| 0.0095 | 0.0150 | 0.0145 | 0.0116 | 0.0126 | 0.0113 | 0.0150 | 0.0138 | 0.0133 | 0.0158 |  |  |  | CCN(CC)c1ccc(NC(=O)[C@@H](N)CC(C)C)cc1 [(c), L-leucil-p-N,N-- diethylaminoanilide] |
|  |  |  |  |  |  |  |  |  |  | 750 nm | > 96% | 65 mg/mL (≈ 182 mM) | CC(C)C[C@H](N)C(=O)Nc1ccc(N(C)CCCS(=O)(=O)O)cc1 [compound 4] |
|  |  |  |  |  |  |  |  |  |  | 740 nm | > 98% | 90 mg/mL (≈ 232 mM) | CCN(CC(O)CS(=O)(=O)O)c1ccc(NC(=O)[C@@H](N)CC(C)C)cc1 (stereo partly drawn) [compound 6] |
|  |  |  |  |  |  |  |  |  |  | 680 nm | 93% | > 200 mg/mL | CC(C)C[C@H](N)C(=O)Nc1ccc(N(CCCS(=O)(=O)O)CCCS(=O)(=O)O)c(S(=O)(=O)O)c1 [compound 8] |
|  |  |  |  |  |  |  |  |  |  | 640 nm | 95% | > 200 mg/mL | CC(C)C[C@H](N)C(=O)Nc1ccc(N(CCS(=O)(=O)O)CCS(=O)(=O)O)c(C#N)c1 [compound 11] |
|  |  |  |  |  |  |  |  |  |  | 705 nm | > 98% | > 200 mg/mL | COC(=O)c1cc(NC(=O)[C@@H](N)CC(C)C)ccc1N(CCCCS(=O)(=O)O)CCCCS(=O)(=O)O [compound 13] |
|  |  |  |  |  |  |  |  |  |  | 720 nm | > 98% | > 200 mg/mL | COc1cc(N(CCCCS(=O)(=O)O)CCCCS(=O)(=O)O)c(C)cc1NC(=O)[C@@H](N)CC(C)C [compound 14] |
| 0.0127 | 0.0198 | 0.0203 | 0.0148 | 0.0158 | 0.0153 | 0.0191 | 0.0190 | 0.0184 | 0.0188 |  |  |  | CC(C)C[C@H](N)C(=O)Nc1ccc(O)c(C(=O)O)c1 [(a), L-leucil-3-carboxy-4-hydroxyanilide] |
|  |  |  |  |  |  |  |  |  |  | 685 nm | > 98% | 125 mg/mL (≈ 250 mM) | CC(C)C[C@H](N)C(=O)Nc1ccc(N(CCCS(=O)(=O)O)CCCS(=O)(=O)O)c(Cl)c1 [compound 10] |
